Measurements published in PMC6120666 (The EMBO Journal, 2018).

Columns and labels:
Test in all cases: Drug affinity chromatography with c-ponatinib and LC-MS/MS (ponatinib interactome)
Format in all cases: binding
[1] = biological target: T1, proteins of U2OS cell lysate (Homo sapiens, UniProt Q9Y6K9)
T1 construct: Proteins enriched by c-ponatinib from U2OS cell lysate; endogenous in cells; host or cells: U2OS cell lysate
In short: (§1)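 Proteins were identified by nano-UPLC–MS/MS after elution with formic acid and trypsin digestion. They were captured from U2OS lysate (2 mg protein per pulldown, NP-40 buffer) on amine-coupled NHS beads during a 2 h incubation at 4 °C.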

[2] = biological target: T2, proteins of U2OS cell lysate (Homo sapiens, UniProt Q99613)
T2 construct: Proteins enriched by c-ponatinib from U2OS cell lysate; endogenous in cells; host or cells: U2OS cell lysate
In short: as §1

[3] = biological target: T3, proteins of U2OS cell lysate (Homo sapiens, UniProt Q14697)
T3 construct: Proteins enriched by c-ponatinib from U2OS cell lysate; endogenous in cells; host or cells: U2OS cell lysate
In short: as §1

[4] = biological target: T4, proteins of U2OS cell lysate (Homo sapiens, UniProt Q13409)
T4 construct: Proteins enriched by c-ponatinib from U2OS cell lysate; endogenous in cells; host or cells: U2OS cell lysate
In short: as §1

[5] = biological target: T5, proteins of U2OS cell lysate (Homo sapiens, UniProt Q16891)
T5 construct: Proteins enriched by c-ponatinib from U2OS cell lysate; endogenous in cells; host or cells: U2OS cell lysate
In short: as §1

[6] = biological target: T6, proteins of U2OS cell lysate (Homo sapiens, UniProt Q9NVA2)
T6 construct: Proteins enriched by c-ponatinib from U2OS cell lysate; endogenous in cells; host or cells: U2OS cell lysate
In short: as §1

[7] = biological target: T7, proteins of U2OS cell lysate (Homo sapiens, UniProt P62701)
T7 construct: Proteins enriched by c-ponatinib from U2OS cell lysate; endogenous in cells; host or cells: U2OS cell lysate
In short: as §1

[8] = biological target: T8, proteins of U2OS cell lysate (Homo sapiens, UniProt P28074)
T8 construct: Proteins enriched by c-ponatinib from U2OS cell lysate; endogenous in cells; host or cells: U2OS cell lysate
In short: as §1

[9] = biological target: T9, proteins of U2OS cell lysate (Homo sapiens, UniProt Q01130)
T9 construct: Proteins enriched by c-ponatinib from U2OS cell lysate; endogenous in cells; host or cells: U2OS cell lysate
In short: as §1

[10] = biological target: T10, proteins of U2OS cell lysate (Homo sapiens, UniProt P04406)
T10 construct: Proteins enriched by c-ponatinib from U2OS cell lysate; endogenous in cells; host or cells: U2OS cell lysate
In short: as §1

[11] = biological target: T11, proteins of U2OS cell lysate (Homo sapiens, UniProt Q99460)
T11 construct: Proteins enriched by c-ponatinib from U2OS cell lysate; endogenous in cells; host or cells: U2OS cell lysate
In short: as §1

[12] = biological target: T12, proteins of U2OS cell lysate (Homo sapiens, UniProt P39656)
T12 construct: Proteins enriched by c-ponatinib from U2OS cell lysate; endogenous in cells; host or cells: U2OS cell lysate
In short: as §1

[13] = biological target: T13, proteins of U2OS cell lysate (Homo sapiens, UniProt Q15459)
T13 construct: Proteins enriched by c-ponatinib from U2OS cell lysate; endogenous in cells; host or cells: U2OS cell lysate
In short: as §1

[14] = biological target: T14, proteins of U2OS cell lysate (Homo sapiens, UniProt P23396)
T14 construct: Proteins enriched by c-ponatinib from U2OS cell lysate; endogenous in cells; host or cells: U2OS cell lysate
In short: as §1

[15] = biological target: T15, proteins of U2OS cell lysate (Homo sapiens, UniProt P49327)
T15 construct: Proteins enriched by c-ponatinib from U2OS cell lysate; endogenous in cells; host or cells: U2OS cell lysate
In short: as §1

[16] = biological target: T16, proteins of U2OS cell lysate (Homo sapiens, UniProt P14618)
T16 construct: Proteins enriched by c-ponatinib from U2OS cell lysate; endogenous in cells; host or cells: U2OS cell lysate
In short: as §1

[17] = biological target: T17, proteins of U2OS cell lysate (Homo sapiens, UniProt P10515)
T17 construct: Proteins enriched by c-ponatinib from U2OS cell lysate; endogenous in cells; host or cells: U2OS cell lysate
In short: as §1

[18] = biological target: T18, proteins of U2OS cell lysate (Homo sapiens, UniProt Q12874)
T18 construct: Proteins enriched by c-ponatinib from U2OS cell lysate; endogenous in cells; host or cells: U2OS cell lysate
In short: as §1

[19] = biological target: T19, proteins of U2OS cell lysate (Homo sapiens, UniProt P12270)
T19 construct: Proteins enriched by c-ponatinib from U2OS cell lysate; endogenous in cells; host or cells: U2OS cell lysate
In short: as §1

T8 sequence (P28074 60-263): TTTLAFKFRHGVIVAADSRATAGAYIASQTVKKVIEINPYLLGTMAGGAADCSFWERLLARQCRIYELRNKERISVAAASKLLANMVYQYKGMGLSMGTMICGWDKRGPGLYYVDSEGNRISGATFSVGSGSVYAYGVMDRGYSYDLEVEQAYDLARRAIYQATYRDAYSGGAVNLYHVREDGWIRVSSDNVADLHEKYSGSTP
T19 sequence (P12270 whole entry): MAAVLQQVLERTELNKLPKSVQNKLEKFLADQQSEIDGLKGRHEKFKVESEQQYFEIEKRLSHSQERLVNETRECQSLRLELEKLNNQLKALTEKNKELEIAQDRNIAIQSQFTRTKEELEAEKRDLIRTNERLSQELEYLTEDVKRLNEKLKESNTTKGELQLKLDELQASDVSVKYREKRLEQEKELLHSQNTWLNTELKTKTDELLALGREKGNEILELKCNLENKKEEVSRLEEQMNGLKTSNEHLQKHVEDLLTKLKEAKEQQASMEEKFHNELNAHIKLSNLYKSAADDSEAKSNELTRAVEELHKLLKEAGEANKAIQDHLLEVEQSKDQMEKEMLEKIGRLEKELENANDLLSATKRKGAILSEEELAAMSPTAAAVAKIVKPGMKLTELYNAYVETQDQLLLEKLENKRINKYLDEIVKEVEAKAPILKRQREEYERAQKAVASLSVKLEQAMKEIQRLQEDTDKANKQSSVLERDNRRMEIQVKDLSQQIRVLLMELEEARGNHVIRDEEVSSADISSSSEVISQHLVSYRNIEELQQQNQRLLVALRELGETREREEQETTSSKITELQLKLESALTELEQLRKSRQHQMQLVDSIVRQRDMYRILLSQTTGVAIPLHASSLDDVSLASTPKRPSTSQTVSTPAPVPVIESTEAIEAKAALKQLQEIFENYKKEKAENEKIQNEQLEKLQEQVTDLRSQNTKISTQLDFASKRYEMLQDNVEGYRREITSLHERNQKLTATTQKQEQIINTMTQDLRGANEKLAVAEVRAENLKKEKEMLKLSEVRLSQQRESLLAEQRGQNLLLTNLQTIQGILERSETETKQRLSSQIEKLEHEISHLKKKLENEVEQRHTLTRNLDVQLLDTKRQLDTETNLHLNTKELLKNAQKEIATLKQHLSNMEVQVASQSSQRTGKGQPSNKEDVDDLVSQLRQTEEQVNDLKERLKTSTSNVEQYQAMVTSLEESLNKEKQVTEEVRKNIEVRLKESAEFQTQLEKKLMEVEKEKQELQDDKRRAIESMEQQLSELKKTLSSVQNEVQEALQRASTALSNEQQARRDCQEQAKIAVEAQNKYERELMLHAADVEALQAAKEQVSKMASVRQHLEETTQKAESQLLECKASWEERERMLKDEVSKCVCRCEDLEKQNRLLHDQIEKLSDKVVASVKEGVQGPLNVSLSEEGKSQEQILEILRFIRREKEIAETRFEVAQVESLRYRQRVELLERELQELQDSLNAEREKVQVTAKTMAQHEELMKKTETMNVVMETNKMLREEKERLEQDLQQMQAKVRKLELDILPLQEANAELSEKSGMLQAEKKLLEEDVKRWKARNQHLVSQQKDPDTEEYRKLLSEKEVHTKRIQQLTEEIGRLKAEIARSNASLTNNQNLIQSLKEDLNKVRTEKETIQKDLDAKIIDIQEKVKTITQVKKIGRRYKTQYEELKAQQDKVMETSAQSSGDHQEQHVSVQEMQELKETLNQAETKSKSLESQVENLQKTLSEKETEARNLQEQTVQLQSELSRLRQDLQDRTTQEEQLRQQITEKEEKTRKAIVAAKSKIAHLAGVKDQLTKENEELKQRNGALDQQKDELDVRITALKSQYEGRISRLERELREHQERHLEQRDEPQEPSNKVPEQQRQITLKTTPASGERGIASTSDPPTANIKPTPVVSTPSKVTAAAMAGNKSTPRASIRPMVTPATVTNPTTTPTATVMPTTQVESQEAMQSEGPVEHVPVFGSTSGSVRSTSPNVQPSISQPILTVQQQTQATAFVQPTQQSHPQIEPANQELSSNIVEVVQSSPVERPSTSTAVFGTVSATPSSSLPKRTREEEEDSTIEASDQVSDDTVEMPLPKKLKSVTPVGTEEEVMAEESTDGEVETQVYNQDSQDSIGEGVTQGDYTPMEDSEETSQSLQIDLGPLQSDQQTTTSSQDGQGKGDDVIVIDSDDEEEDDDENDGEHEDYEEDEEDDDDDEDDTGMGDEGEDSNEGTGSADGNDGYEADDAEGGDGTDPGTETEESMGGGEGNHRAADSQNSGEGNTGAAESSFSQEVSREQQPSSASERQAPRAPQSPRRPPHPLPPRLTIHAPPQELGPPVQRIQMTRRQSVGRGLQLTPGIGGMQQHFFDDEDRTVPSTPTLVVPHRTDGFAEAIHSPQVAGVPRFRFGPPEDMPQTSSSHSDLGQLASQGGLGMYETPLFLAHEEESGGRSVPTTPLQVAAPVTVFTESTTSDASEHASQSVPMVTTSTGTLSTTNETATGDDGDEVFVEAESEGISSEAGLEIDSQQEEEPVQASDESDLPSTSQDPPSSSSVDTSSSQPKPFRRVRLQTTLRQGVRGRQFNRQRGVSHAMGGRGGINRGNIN
T13 sequence (Q15459 whole entry): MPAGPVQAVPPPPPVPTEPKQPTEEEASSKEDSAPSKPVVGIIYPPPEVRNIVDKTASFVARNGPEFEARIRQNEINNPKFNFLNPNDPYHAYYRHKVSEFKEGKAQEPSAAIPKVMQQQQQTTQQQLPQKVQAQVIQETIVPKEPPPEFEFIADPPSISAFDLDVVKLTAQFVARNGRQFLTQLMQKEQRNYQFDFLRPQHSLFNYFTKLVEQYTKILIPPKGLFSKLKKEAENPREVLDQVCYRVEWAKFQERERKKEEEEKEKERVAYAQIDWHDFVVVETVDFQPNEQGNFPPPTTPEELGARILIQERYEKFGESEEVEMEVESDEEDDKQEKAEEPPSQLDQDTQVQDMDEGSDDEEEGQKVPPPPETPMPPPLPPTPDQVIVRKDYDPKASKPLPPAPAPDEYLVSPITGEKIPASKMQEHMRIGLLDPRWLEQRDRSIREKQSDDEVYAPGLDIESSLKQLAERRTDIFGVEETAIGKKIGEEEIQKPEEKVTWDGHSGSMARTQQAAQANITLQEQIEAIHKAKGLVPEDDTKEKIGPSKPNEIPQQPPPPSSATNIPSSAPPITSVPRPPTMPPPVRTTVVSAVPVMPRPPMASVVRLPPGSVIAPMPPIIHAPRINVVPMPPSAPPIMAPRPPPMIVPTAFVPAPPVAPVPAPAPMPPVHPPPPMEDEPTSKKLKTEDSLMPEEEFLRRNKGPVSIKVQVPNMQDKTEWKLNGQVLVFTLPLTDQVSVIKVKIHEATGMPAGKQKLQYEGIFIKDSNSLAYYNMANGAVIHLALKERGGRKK
T1 sequence (Q9Y6K9 whole entry): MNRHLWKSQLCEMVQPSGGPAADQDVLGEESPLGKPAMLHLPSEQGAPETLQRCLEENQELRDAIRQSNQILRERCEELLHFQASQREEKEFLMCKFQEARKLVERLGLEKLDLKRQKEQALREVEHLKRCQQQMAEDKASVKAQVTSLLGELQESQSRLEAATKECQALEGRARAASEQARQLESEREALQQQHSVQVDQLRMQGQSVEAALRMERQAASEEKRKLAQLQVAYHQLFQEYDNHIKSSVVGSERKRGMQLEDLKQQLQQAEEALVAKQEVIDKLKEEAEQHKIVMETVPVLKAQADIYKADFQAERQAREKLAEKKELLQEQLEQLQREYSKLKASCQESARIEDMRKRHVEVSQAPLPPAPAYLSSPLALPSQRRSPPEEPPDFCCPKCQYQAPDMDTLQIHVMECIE
T10 sequence (P04406 whole entry): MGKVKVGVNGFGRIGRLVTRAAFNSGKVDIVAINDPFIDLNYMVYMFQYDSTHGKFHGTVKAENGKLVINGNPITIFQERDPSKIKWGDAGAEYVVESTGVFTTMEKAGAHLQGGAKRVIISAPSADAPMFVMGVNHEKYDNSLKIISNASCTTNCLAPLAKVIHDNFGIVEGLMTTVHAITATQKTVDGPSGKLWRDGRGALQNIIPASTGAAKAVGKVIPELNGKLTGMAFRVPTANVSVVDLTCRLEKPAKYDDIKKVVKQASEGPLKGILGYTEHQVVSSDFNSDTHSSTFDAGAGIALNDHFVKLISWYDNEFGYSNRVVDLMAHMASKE
T5 sequence (Q16891 34-758): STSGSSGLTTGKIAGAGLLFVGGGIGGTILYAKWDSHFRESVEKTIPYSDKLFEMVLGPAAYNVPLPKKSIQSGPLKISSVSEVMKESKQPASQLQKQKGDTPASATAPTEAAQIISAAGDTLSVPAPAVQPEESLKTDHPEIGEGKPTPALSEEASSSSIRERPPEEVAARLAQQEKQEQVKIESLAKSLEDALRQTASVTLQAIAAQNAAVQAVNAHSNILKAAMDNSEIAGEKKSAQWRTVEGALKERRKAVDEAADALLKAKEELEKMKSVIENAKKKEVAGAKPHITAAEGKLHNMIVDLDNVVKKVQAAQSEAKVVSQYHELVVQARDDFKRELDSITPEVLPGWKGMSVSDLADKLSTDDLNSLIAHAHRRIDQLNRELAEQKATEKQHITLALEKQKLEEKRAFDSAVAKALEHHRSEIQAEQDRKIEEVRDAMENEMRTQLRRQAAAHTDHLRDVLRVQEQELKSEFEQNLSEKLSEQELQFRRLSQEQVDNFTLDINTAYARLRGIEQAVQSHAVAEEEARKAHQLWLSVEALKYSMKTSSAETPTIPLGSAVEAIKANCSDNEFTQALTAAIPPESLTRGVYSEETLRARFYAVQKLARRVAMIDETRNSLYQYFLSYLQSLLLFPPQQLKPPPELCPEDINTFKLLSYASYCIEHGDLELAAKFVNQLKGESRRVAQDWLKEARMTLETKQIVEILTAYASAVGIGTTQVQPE
T9 sequence (Q01130 whole entry): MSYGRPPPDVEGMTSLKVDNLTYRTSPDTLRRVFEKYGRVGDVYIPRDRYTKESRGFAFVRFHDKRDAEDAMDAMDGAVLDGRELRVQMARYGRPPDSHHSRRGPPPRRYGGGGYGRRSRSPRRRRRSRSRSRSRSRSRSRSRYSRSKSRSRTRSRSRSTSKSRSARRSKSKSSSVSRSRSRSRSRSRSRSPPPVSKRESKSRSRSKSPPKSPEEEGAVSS

`Cc1ccc(C(=O)Nc2ccc(CN3CCN(CCCN)CC3)c(C(F)(F)F)c2)cc1C#Cc1cnc2cccnn12` [c-ponatinib, reference compound] was tested, and the “Average LFQ intensity” value ([1]; captured protein IKBKG, Rank 212) was 21.7256, the “Average LFQ intensity” value ([2]; captured protein EIF3C;EIF3CL, Rank 191) was 21.9967 and the “Average LFQ intensity” value ([3]; captured protein GANAB, Rank 172) was 22.2601. For the same molecule, the “Average LFQ intensity” value ([4]; captured protein DYNC1I2, Rank 179) was 22.2038, the “Average LFQ intensity” value ([5]; captured protein IMMT, Rank 188) was 22.0335 and the “Average LFQ intensity” value ([6]; captured protein 2011-09-01 (Septin-11), Rank 222) was 21.5746. The “Average LFQ intensity” value ([7]; captured protein RPS4X, Rank 140) was 22.7536, the “Average LFQ intensity” value ([8]; captured protein PSMB5, Rank 211) was 21.7301 and the “Average LFQ intensity” value ([9]; captured protein SRSF2, Rank 132) was 22.8743. For the same molecule, the “Average LFQ intensity” value ([10]; captured protein GAPDH, Rank 124) was 22.9925, the “Average LFQ intensity” value ([11]; captured protein PSMD1, Rank 199) was 21.8552 and the “Average LFQ intensity” value ([12]; captured protein DDOST, Rank 129) was 22.9075. The “Average LFQ intensity” value ([13]; captured protein SF3A1, Rank 193) was 21.9763, the “Average LFQ intensity” value ([14]; captured protein RPS3, Rank 210) was 21.7357 and the “Average LFQ intensity” value ([15]; captured protein FASN, Rank 161) was 22.4378. The “Average LFQ intensity” value ([16]; captured protein PKM, Rank 224) was 21.567, the “Average LFQ intensity” value ([17]; captured protein DLAT, Rank 215) was 21.6984 and the “Average LFQ intensity” value ([18]; captured protein SF3A3, Rank 228) was 21.5172. For the same molecule, the “Average LFQ intensity” value ([19]; captured protein TPR, Rank 156) was 22.5124.
In the case of `Cc1ccc(C(=O)Nc2ccc(CN3CCN(C)CC3)c(C(F)(F)F)c2)cc1C#Cc1cnc2cccnn12` [PON], the “Average LFQ PON_WT” value ([1]; IKBKG, NF-kappa-B essential modulator) is reported as 21.7256, the “Average LFQ PON_WT” value ([2]; EIF3C;EIF3CL, Eukaryotic translation initiation factor 3 subunit C) is reported as 21.9967 and the “Average LFQ PON_WT” value ([3]; GANAB, Neutral alpha-glucosidase AB) is reported as 22.2601. For the same molecule, the “Average LFQ PON_WT” value ([4]; DYNC1I2, Cytoplasmic dynein 1 intermediate chain 2) was 22.2038, the “Average LFQ PON_WT” value ([5]; IMMT, Mitochondrial inner membrane protein) was 22.0335 and the “Average LFQ PON_WT” value ([6]; SEPT11, Septin-11) was 21.5746. For the same molecule, the “Average LFQ PON_WT” value ([7]; RPS4X, 40S ribosomal protein S4, X isoform) was 22.7536, the “Average LFQ PON_WT” value ([8]; PSMB5, Proteasome subunit beta type-5) was 21.73 and the “Average LFQ PON_WT” value ([9]; SRSF2, Serine/arginine-rich splicing factor 2) was 22.8743. For the same molecule, the “Average LFQ PON_WT” value ([10]; GAPDH, Glyceraldehyde-3-phosphate dehydrogenase) was 22.9925, the “Average LFQ PON_WT” value ([11]; PSMD1, 26S proteasome non-ATPase regulatory subunit 1) was 21.8552 and the “Average LFQ PON_WT” value ([12]; DDOST, Dolichyl-diphosphooligosaccharide--protein glycosyltransferase 48 kDa subunit) was 22.9075. The “Average LFQ PON_WT” value ([13]; SF3A1, Splicing factor 3A subunit 1) was 21.9763, the “Average LFQ PON_WT” value ([14]; RPS3, 40S ribosomal protein S3) was 21.7356 and the “Average LFQ PON_WT” value ([15]; FASN, Fatty acid synthase) was 22.4378. The “Average LFQ PON_WT” value ([16]; PKM, Pyruvate kinase PKM) was 21.567, the “Average LFQ PON_WT” value ([17]; DLAT, Dihydrolipoyllysine-residue acetyltransferase component of pyruvate dehydrogenase complex, mitochondrial) was 21.6984 and the “Average LFQ PON_WT” value ([18]; SF3A3, Splicing factor 3A subunit 3) was 21.5172. For the same molecule, the “Average LFQ PON_WT” value ([19]; TPR, Nucleoprotein TPR) was 22.5124.
